Test results from patent publication US9242996B2 (Novartis AG, priority 2013, dated 2016).

Molecular target: activated ERK2 (Homo sapiens (Human), UniProt P28482)
Assay: Activated ERK2 kinase assay, ERK2 New conditions (AlphaScreen, ERKtide phosphorylation)
Type: biochemical
Details: 0.25 nM ERK2, 200 nM ERKtide peptide, 35 μM ATP, 30 min preincubation
Procedure, shortened: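 Read-out is AlphaScreen with anti-phospho-EGFR (Thr669) antibody after EDTA quench and overnight dark incubation. Reaction: 0.25 nM ERK2, 30 min compound preincubation, then 200 nM ERKtide plus 35 µM ATP for 2–3 h at ambient temperature, pH 7.5. IC50 by four-parameter fit.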

Sequence of activated ERK2 (P28482 whole entry): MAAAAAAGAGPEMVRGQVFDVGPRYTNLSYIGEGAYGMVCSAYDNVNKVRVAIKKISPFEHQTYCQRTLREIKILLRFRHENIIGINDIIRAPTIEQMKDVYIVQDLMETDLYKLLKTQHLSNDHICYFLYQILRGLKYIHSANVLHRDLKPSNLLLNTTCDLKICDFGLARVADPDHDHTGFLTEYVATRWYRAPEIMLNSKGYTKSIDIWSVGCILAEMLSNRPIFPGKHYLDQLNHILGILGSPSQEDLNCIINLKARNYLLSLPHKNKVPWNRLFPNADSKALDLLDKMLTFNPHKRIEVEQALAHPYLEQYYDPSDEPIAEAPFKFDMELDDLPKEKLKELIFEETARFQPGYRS

| IC50 [nM] | SMILES |
| --- | --- |
| 0.998 | Cn1cnnc1-c1cnc(N)c(-c2ccc(C(=O)N[C@H](CO)c3cccc(Cl)c3)c(F)c2)c1 [Example 167, (S)-4-(2-amino-5-(4-methyl-4H-1,2,4-triazol-3-yl)pyridin-3-yl)-N-(1-(3-chlorophenyl)-2-hydroxyethyl)-2-fluorobenzamide] |
| 5.13 | Cn1cc(-c2cnc(N)c(-c3ccc(C(=O)N[C@H](CO)c4ccccc4)c(F)c3)c2)c(C(F)(F)F)n1 [Example 168, (S)-4-(2-amino-5-(1-methyl-3-(trifluoromethyl)-1H-pyrazol-4-yl)pyridin-3-yl)-2-fluoro-N-(2-hydroxy-1-phenylethyl)benzamide] |
| 1.58 | Cc1c(-c2cnc(N)c(-c3ccc(C(=O)N[C@H](CO)c4ccccc4)c(F)c3)c2)cnn1C [Example 170, (S)-4-(2-amino-5-(1,5-dimethyl-1H-pyrazol-4-yl)pyridin-3-yl)-2-fluoro-N-(2-hydroxy-1-phenylethyl)benzamide] |
| 1.09 | COCCn1cc(-c2cnc(N)c(-c3ccc(C(=O)N[C@H](CO)c4ccccc4)c(F)c3)c2)cn1 [Example 171, (S)-4-(2-amino-5-(1-(2-methoxyethyl)-1H-pyrazol-4-yl)pyridin-3-yl)-2-fluoro-N-(2-hydroxy-1-phenylethyl)benzamide] |
| 2.1 | NC[C@@H](NC(=O)c1ccc(-c2nc(C3CCC(F)(F)CC3)cnc2N)cc1F)c1cccc(Cl)c1 [Example 197, (S)—N-(2-amino-1-(3-chlorophenyl)ethyl)-4-(3-amino-6-(4,4-difluorocyclohexyl)pyrazin-2-yl)-2-fluorobenzamide] |
| 5.44 | Nc1ncc([C@H]2CC[S@+]([O-])CC2)cc1-c1ccc(C(=O)N[C@H](CO)c2cccc(Cl)c2)c(F)c1 [Example 211, 4-(2-amino-5-((1S,4r)-1-oxidotetrahydro-2H-thiopyran-4-yl)pyridin-3-yl)-N—((S)-1-(3-chlorophenyl)-2-hydroxyethyl)-2-fluorobenzamide] |
| 0.397 | Nc1ncc(C2CCSCC2)cc1-c1ccc(C(=O)N[C@H](CO)c2cccc(Cl)c2)c(F)c1 [Example 212, (S)-4-(2-amino-5-(tetrahydro-2H-thiopyran-4-yl)pyridin-3-yl)-N-(1-(3-chlorophenyl)-2-hydroxyethyl)-2-fluorobenzamide] |
| 11.9 | CS(=O)(=O)N1CCCC(c2cnc(N)c(-c3ccc(C(=O)N[C@H](CO)c4ccccc4)c(F)c3)n2)C1 (stereo partly drawn) [Example 213, 4-(3-amino-6-(1-(methylsulfonyl)piperidin-3-yl)pyrazin-2-yl)-2-fluoro-N—((S)-2-hydroxy-1-phenylethyl)benzamide] |
| 13.4 | COC(=O)N1CCCC(c2cnc(N)c(-c3ccc(C(=O)N[C@H](CO)c4ccccc4)c(F)c3)n2)C1 (stereo partly drawn) [Example 214, methyl 3-(5-amino-6-(3-fluoro-4-(((S)-2-hydroxy-1-phenylethyl)carbamoyl)phenyl)pyrazin-2-yl)piperidine-1-carboxylate] |
| 28.5 | CC(=O)N1CCCC(c2cnc(N)c(-c3ccc(C(=O)N[C@H](CO)c4ccccc4)c(F)c3)n2)C1 (stereo partly drawn) [Example 215, 4-(6-(1-acetylpiperidin-3-yl)-3-aminopyrazin-2-yl)-2-fluoro-N—((S)-2-hydroxy-1-phenylethyl)benzamide] |
| 1.81 | COC(=O)N1CCCC(c2cnc(N)c(-c3ccc(C(=O)N[C@H](CO)c4cccc(Cl)c4)c(F)c3)n2)C1 (stereo partly drawn) [Example 216, methyl 3-(5-amino-6-(4-(((S)-1-(3-chlorophenyl)-2-hydroxyethyl)carbamoyl)-3-fluorophenyl)pyrazin-2-yl)piperidine-1-carboxylate] |
| 1.13 | CCn1cc(-c2cnc(N)c(-c3ccc(C(=O)N[C@H](CO)c4ccccc4)c(F)c3)n2)cn1 [Example 217, (S)-4-(3-amino-6-(1-ethyl-1H-pyrazol-4-yl)pyrazin-2-yl)-2-fluoro-N-(2-hydroxy-1-phenylethyl) benzamide] |
| 24.2 | Nc1ncc(C2CNC(=O)C2)cc1-c1ccc(C(=O)N[C@H](CO)c2ccccc2)c(F)c1 (stereo partly drawn) [Example 218, 4-(2-amino-5-(5-oxopyrrolidin-3-yl)pyridin-3-yl)-2-fluoro-N—((S)-2-hydroxy-1-phenylethyl)benzamide] |
| 32.7 | Nc1ncc([C@@H]2CNC(=O)C2)cc1-c1ccc(C(=O)N[C@H](CO)c2ccccc2)c(F)c1 [Example 219, 4-(2-amino-5-((R)-5-oxopyrrolidin-3-yl)pyridin-3-yl)-2-fluoro-N—((S)-2-hydroxy-1-phenylethyl)benzamide] |
| 72.3 | Nc1ncc([C@H]2CNC(=O)C2)cc1-c1ccc(C(=O)N[C@H](CO)c2ccccc2)c(F)c1 [Example 220, 4-(2-amino-5-((S)-5-oxopyrrolidin-3-yl)pyridin-3-yl)-2-fluoro-N—((S)-2-hydroxy-1-phenylethyl)benzamide] |
| 30.6 | COC(=O)[C@@H]1C[C@H](c2cnc(N)c(-c3ccc(C(=O)N[C@H](CO)c4cccc(Cl)c4)c(F)c3)c2)CN1 [Example 221, (2S,4R)-methyl 4-(6-amino-5-(4-(((S)-1-(3-chlorophenyl)-2-hydroxyethyl)carbamoyl)-3-fluorophenyl)pyridin-3-yl)pyrrolidine-2-carboxylate] |

| IC50 [nM] | SMILES |
| --- | --- |
| 24.8 | Nc1ncc([C@@H]2CN[C@H](C(=O)O)C2)cc1-c1ccc(C(=O)N[C@H](CO)c2cccc(Cl)c2)c(F)c1 [Example 222, (2S,4R)-4-(6-amino-5-(4-(((S)-1-(3-chlorophenyl)-2-hydroxyethyl)carbamoyl)-3-fluorophenyl)pyridin-3-yl)pyrrolidine-2-carboxylic acid] |
| 10.4 | COC(=O)[C@@H]1C[C@H](c2cnc(N)c(-c3ccc(C(=O)N[C@H](CO)c4cccc(Cl)c4)c(F)c3)c2)CN1 [Example 223, (2S,4R)-methyl 4-(6-amino-5-(4-(((S)-1-(3-chlorophenyl)-2-hydroxyethyl)carbamoyl)-3-fluorophenyl)pyridin-3-yl)pyrrolidine-2-carboxylate] |
| 18.8 | Nc1ncc(C2COC2)nc1-c1ccc(C(=O)N[C@H](CO)c2ccccc2)c(F)c1 [Example 224, (S)-4-(3-amino-6-(oxetan-3-yl)pyrazin-2-yl)-2-fluoro-N-(2-hydroxy-1-phenylethyl)benzamide] |
| 1.07 | Cn1nccc1-c1cnc(N)c(-c2ccc(C(=O)N[C@H](CO)c3cccc(F)c3)c(F)c2)c1 [Example 229, (S)-4-(2-amino-5-(1-methyl-1H-pyrazol-5-yl)pyridin-3-yl)-2-fluoro-N-(1-(3-fluorophenyl)-2-hydroxyethyl) benzamide] |
| 0.899 | Cn1nccc1-c1cnc(N)c(-c2ccc(C(=O)N[C@H](CO)c3cccc(S(C)(=O)=O)c3)c(F)c2)c1 [Example 230, (S)-4-(2-amino-5-(1-methyl-1H-pyrazol-5-yl)pyridin-3-yl)-2-fluoro-N-(2-hydroxy-1-(3-(methylsulfonyl)phenyl)ethyl) benzamide] |
| 0.217 | Cc1cccc([C@@H](CO)NC(=O)c2ccc(-c3cc(-c4ccnn4C)cnc3N)cc2F)c1 [Example 231, (S)-4-(2-amino-5-(1-methyl-1H-pyrazol-5-yl)pyridin-3-yl)-2-fluoro-N-(2-hydroxy-1-(m-tolyl)ethyl) benzamide] |
| 0.257 | Cn1nccc1-c1cnc(N)c(-c2ccc(C(=O)N[C@H](CO)c3cc(F)cc(Cl)c3)c(F)c2)c1 [Example 232, (S)-4-(2-amino-5-(1-methyl-1H-pyrazol-5-yl)pyridin-3-yl)-N-(1-(3-chloro-5-fluorophenyl)-2-hydroxyethyl)-2-fluorobenzamide] |
| 1.47 | Cn1cncc1-c1cnc(N)c(-c2ccc(C(=O)N[C@H](CO)c3cccc(F)c3)c(F)c2)c1 [Example 234, (S)-4-(2-amino-5-(1-methyl-1H-imidazol-5-yl)pyridin-3-yl)-2-fluoro-N-(1-(3-fluorophenyl)-2-hydroxyethyl) benzamide] |
| 0.326 | Cn1cncc1-c1cnc(N)c(-c2ccc(C(=O)N[C@H](CO)c3cccc(Cl)c3)c(F)c2)c1 [Example 235, (S)-4-(2-amino-5-(1-methyl-1H-imidazol-5-yl)pyridin-3-yl)-N-(1-(3-chlorophenyl)-2-hydroxyethyl)-2-fluorobenzamide] |
| 56.6 | Cn1cc(-c2cnc(N)c(-c3ccc(C(=O)NCc4cccc(Cl)n4)c(F)c3)c2)cn1 [Example 236, 4-(2-amino-5-(1-methyl-1H-pyrazol-4-yl)pyridin-3-yl)-N-((6-chloropyridin-2-yl)methyl)-2-fluorobenzamide] |
| 2610 | Cn1cc(CNC(=O)c2ccc(-c3cc(-c4cnn(C)c4)cnc3N)cc2F)cn1 [Example 237, 4-(2-amino-5-(1-methyl-1H-pyrazol-4-yl)pyridin-3-yl)-2-fluoro-N-((1-methyl-1H-pyrazol-4-yl)methyl) benzamide] |
| 352 | Cn1cc(-c2cnc(N)c(-c3ccc(C(=O)NCc4nccs4)c(F)c3)c2)cn1 [Example 238, 4-(2-amino-5-(1-methyl-1H-pyrazol-4-yl)pyridin-3-yl)-2-fluoro-N-(thiazol-2-ylmethyl) benzamide] |
| 28.5 | Cn1cc(-c2cnc(N)c(-c3ccc(C(=O)NCc4ccsc4)c(F)c3)c2)cn1 [Example 239, 4-(2-amino-5-(1-methyl-1H-pyrazol-4-yl)pyridin-3-yl)-2-fluoro-N-(thiophen-3-ylmethyl) benzamide] |
| 2.67 | Cn1cc(-c2cnc(N)c(-c3ccc(C(=O)NCc4cccc(C(F)F)c4)c(F)c3)c2)cn1 [Example 245, 4-(2-amino-5-(1-methyl-1H-pyrazol-4-yl)pyridin-3-yl)-N-(3-(difluoromethyl)benzyl)-2-fluorobenzamide] |
| 1.52 | Cn1cc(-c2cnc(N)c(-c3ccc(C(=O)NCc4cccc(Br)c4)c(F)c3)c2)cn1 [Example 246, 4-(2-amino-5-(1-methyl-1H-pyrazol-4-yl)pyridin-3-yl)-N-(3-bromobenzyl)-2-fluorobenzamide] |
| 0.73 | Cc1c(-c2cnc(N)c(-c3ccc(C(=O)N[C@H](CO)c4ccccc4)c(F)c3)n2)cnn1C [Example 247, (S)-4-(3-amino-6-(1,5-dimethyl-1H-pyrazol-4-yl)pyrazin-2-yl)-2-fluoro-N-(2-hydroxy-1-phenylethyl) benzamide] |
